Molecules are shown by their SMILES.

The target of experiment [1] is T1, MKNK1 (Homo sapiens, UniProt Q9BUB5, T385D).
T1 construct: GST (N); purchased Carna Biosciences 02-145; host or cells: insect cells (baculovirus expression system)
Kind of experiment: MKNK1 kinase assay (MKNK1 TR-FRET assay). It is filed as biochemical. The following applies: 10 μM ATP, 15 min preincubation. On the technique in general: Time-resolved FRET reads energy transfer from a long-lived donor to a nearby acceptor.

Experiment [2] concerns the target T1, MKNK1. Kind of experiment: MKNK1 kinase high ATP assay (TR-FRET-based). The class given is biochemical. The note with it: 2 mM ATP, 15 min preincubation. Summed up: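 TR-FRET read-out (anti-phospho-S6 Ser236 antibody, Eu/XL665) of biotin-peptide phosphorylation (0.06 μM) at high ATP (2 mM final). Enzyme was GST-MKNK1 full length, T344D, pre-bound to compound for 15 min before a 30 min reaction at 22 °C, pH 7.5. Inhibition scaled between no-inhibitor (0%) and no-enzyme (100%) wells.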

T1 sequence (Q9BUB5 1-424 isoform Q9BUB5-2 T344D): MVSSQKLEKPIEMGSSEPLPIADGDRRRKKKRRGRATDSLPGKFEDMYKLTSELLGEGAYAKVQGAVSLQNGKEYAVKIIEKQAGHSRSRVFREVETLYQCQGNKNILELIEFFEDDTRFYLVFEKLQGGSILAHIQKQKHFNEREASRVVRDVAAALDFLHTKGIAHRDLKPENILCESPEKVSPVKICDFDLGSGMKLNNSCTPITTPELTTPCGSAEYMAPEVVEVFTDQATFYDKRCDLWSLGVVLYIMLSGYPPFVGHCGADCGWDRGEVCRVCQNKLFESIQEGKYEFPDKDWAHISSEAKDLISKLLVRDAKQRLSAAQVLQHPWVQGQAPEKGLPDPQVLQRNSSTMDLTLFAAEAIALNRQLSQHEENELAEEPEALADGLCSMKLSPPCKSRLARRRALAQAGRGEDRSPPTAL

Usually IC50 stands for the point on the concentration scale where inhibition reaches its midpoint. Take `CC1(C)CN(c2cccc3oc(-c4cnc5ccc(OC[C@@H]6CCC(=O)N6)nn45)cc23)CCO1` [II-63, (5S)-5-[({3-[4-(2,2-dimethylmorpholin-4-yl)-1-benzofuran-2-yl]imidazo[1,2-b]pyridazin-6-yl}oxy)methyl]pyrrolidin-2-one]: the values for the IC50 against MKNK1 [1] (Table 1b) and at MKNK1 [2] (Table 2b) were 15.2 nM and 39.5 nM, respectively.
On to `C[C@@H]1CN(c2nccc3oc(-c4cnc5ccc(O[C@H]6C[C@H](N)C6)nn45)cc23)CCO1` [III-122, trans-3-[(3-{4-[(2R)-2-methylmorpholin-4-yl]furo[3,2-c]pyridin-2-yl}imidazo[1,2-b]pyridazin-6-yl)oxy]cyclobutanamine], for which the values for the IC50 at MKNK1 [1] (Table 1c) and at MKNK1 [2] (Table 2c) were 12.3 nM and 13 nM, respectively.
For `C[C@H](N)COc1ccc2ncc(-c3cc4c(N5CCN(C)CC5)nccc4o3)n2n1` [III-8, (2S)-1-({3-[4-(4-Methylpiperazin-1-yl)furo[3,2-c]pyridin-2-yl]imidazo[1,2-b]pyridazin-6-yl}oxy)propan-2-amine] the same measures were 7.2 nM and 16.3 nM.
`C[C@@H]1CNCCN1c1cccc2oc(-c3cnc4ccc(OC[C@H]5CCC(=O)N5)nn34)cc12` [II-65, (5R)-5-{[(3-{4-[(2R)-2-methylpiperazin-1-yl]-1-benzofuran-2-yl}imidazo[1,2-b]pyridazin-6-yl)oxy]methyl}pyrrolidin-2-one]: the figures for the IC50 on MKNK1 [1] (Table 1b) and on MKNK1 [2] (Table 2b) were 0.9 nM and 1.3 nM, respectively.
Take `CC1(C)CN(c2nccc3oc(-c4cnc5ccc(OC[C@@H]6CCC(=O)N6)nn45)cc23)CCO1` [III-132, (5S)-5-[({3-[4-(2,2-dimethylmorpholin-4-yl)furo[3,2-c]pyridin-2-yl]imidazo[1,2-b]pyridazin-6-yl}oxy)methyl]pyrrolidin-2-one]: the IC50 at MKNK1 [1] (Table 1c) is 6.8 nM; on MKNK1 [2] (Table 2c), 2.5 nM.
For the compound `COc1nccc2oc(-c3cnc4ccc(OCC5CCCC(=O)N5)nn34)cc12` (stereo not shown) [IV-9, 6-({[3-(4-Methoxyfuro[3,2-c]pyridin-2-yl)imidazo[1,2-b]pyridazin-6-yl]oxy}-methyl)piperidin-2-one], the IC50 at MKNK1 [1] (Table 1d) stood at 3 nM; on MKNK1 [2] (Table 2d), 9 nM.
Regarding `CN1CCC(N(C)c2nccc3oc(-c4cnc5ccc(OC[C@H]6CCC(=O)N6)nn45)cc23)CC1` [III-65, (5R)-5-{[(3-{4-[Methyl(1-methylpiperidin-4-yl)amino]furo[3,2-c]pyridin-2-yl}imidazo[1,2-b]pyridazin-6-yl)oxy]methyl}pyrrolidin-2-one], the IC50 against MKNK1 [1] (Table 1c) stood at 11.6 nM; on MKNK1 [2] (Table 2c), 19.9 nM.
For `C[C@@H](N)COc1ccc2ncc(-c3cc4c(N5CCC(CO)CC5)nccc4o3)n2n1` [III-2, {1-[2-(6-{[(2R)-2-Aminopropyl]oxy}imidazo[1,2-b]pyridazin-3-yl)furo[3,2-c]pyridin-4-yl]piperidin-4-yl}methanol], in that order: 1.8 nM and 1.8 nM.
For `C[C@@H]1CN(c2nccc3oc(-c4cnc5ccc(OCCCS(C)(=O)=O)nn45)cc23)CCO1` [III-119, 3-{4-[(2R)-2-methylmorpholin-4-yl]furo[3,2-c]pyridin-2-yl}-6-[3-(methylsulfonyl)propoxy] imidazo[1,2-b]pyridazine], in that order: 8.8 nM and 17 nM.
As to `CC(=O)N1CCOC(COc2ccc3ncc(-c4cc5ccccc5o4)n3n2)C1` (stereo not shown) [Example I-27, 1-[2-({[3-(1-Benzofuran-2-yl)imidazo[1,2-b]pyridazin-6-yl]oxy}methyl)-morpholin-4-yl]ethanone], the IC50 was 7.3 nM against MKNK1 [1] (Table 1a) and 23.5 nM against MKNK1 [2] (Table 2a).
For `O=C(NCCOc1ccc2ncc(-c3cc4ccccc4o3)n2n1)C1CC1` [Example I-15, N-(2-{[3-(1-Benzofuran-2-yl)imidazo[1,2-b]pyridazin-6-yl]oxy}ethyl)-cyclopropanecarboxamide] the same measures were 5.6 nM and 12.5 nM.

The values above are taken from US20160287589A1, “SUBSTITUTED-IMIDAZOPYRIDAZINES” (BAYER PHARMA AKTIENGESELLSCHAFT, priority 2013, published 2016).
